Experimental data published in ChEMBL document CHEMBL1201862, “PubChem BioAssay data set” (2004).
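Dose response: 5 concentrations. Exposure: 48 h. Format: 96-well plates. Endpoint: linear interpolation; highest concentration if not reached. Here, GI50 denotes the concentration required for 50% inhibition of growth.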 Calls of active or inactive are those of the source. Cut-off read from the data, not from the text of the source: active = GI50 up to about 1.1 µM and inactive = higher.

Assays:
Experiment in all cases: NCI tumour cell line growth inhibition, 48 h
[1] = test system: OVCAR-8
[2] = test system: MDA-N
[3] = test system: UO-31
[4] = test system: TK-10
[5] = test system: OVCAR-5
[6] = test system: HL-60
[7] = test system: SK-MEL-2
[8] = test system: ACHN
[9] = test system: HOP-92
[10] = test system: DU-145
[11] = test system: 786-0
[12] = test system: U-251
[13] = test system: COLO 205
[14] = test system: IGROV-1
[15] = test system: HCT-116
[16] = test system: M14
[17] = test system: SF-295
[18] = test system: UACC-62
[19] = test system: SK-OV-3
[20] = test system: RXF 393

Row | Structure (SMILES) | GI50 [1] | GI50 [2] | GI50 [3] | GI50 [4] | GI50 [5] | GI50 [6] | GI50 [7] | GI50 [8] | GI50 [9] | GI50 [10] | GI50 [11] | GI50 [12] | GI50 [13] | GI50 [14] | GI50 [15] | GI50 [16] | GI50 [17] | GI50 [18] | GI50 [19] | GI50 [20]
1 | COI1NC(=O)c2ccccc21 | > 100 µM (inactive) | > 100 µM (inactive) | > 100 µM (inactive) | > 100 µM (inactive) | > 100 µM (inactive) | > 100 µM (inactive) | > 100 µM (inactive) | > 100 µM (inactive) | > 100 µM (inactive) | > 100 µM (inactive) | > 100 µM (inactive) | > 100 µM (inactive) | > 100 µM (inactive) | > 100 µM (inactive) | > 100 µM (inactive) | > 100 µM (inactive) | > 100 µM (inactive) | > 100 µM (inactive) | > 100 µM (inactive) | 
2 | CCCCn1c2c(n(CCCC)c1=S)-c1c(n(CCCC)c(=S)n1CCCC)S[Se][Se]S2 | 4.16 µM (inactive) | 8.83 µM (inactive) | 2.5 µM (inactive) | 4.42 µM (inactive) | 2.17 µM (inactive) |  | 8.75 µM (inactive) | 2.67 µM (inactive) | 0.942 µM (active) | 16.9 µM (inactive) | 4.62 µM (inactive) | 4.37 µM (inactive) | 1.62 µM (inactive) | 2.42 µM (inactive) | 4.27 µM (inactive) | 8.59 µM (inactive) | 3.51 µM (inactive) | 5.58 µM (inactive) | 22 µM (inactive) | 3.96 µM (inactive)
3 | CCOC(=O)CSc1[nH]c(NC(=S)Nc2ccccc2)c(C(N)=O)c1C(N)=O | > 10 µM (inactive) | > 10 µM (inactive) |  | > 10 µM (inactive) |  | 2.32 µM (inactive) |  |  | > 10 µM (inactive) | > 10 µM (inactive) | > 10 µM (inactive) |  | > 10 µM (inactive) | > 10 µM (inactive) |  | > 10 µM (inactive) | > 10 µM (inactive) | > 10 µM (inactive) | > 10 µM (inactive) | > 10 µM (inactive)
4 | CC(C)=NNc1snnc1C(N)=O | > 100 µM (inactive) | > 100 µM (inactive) | > 100 µM (inactive) | > 100 µM (inactive) | > 100 µM (inactive) | > 100 µM (inactive) | > 100 µM (inactive) | > 100 µM (inactive) |  | > 100 µM (inactive) | > 100 µM (inactive) | > 100 µM (inactive) | > 100 µM (inactive) | > 100 µM (inactive) | > 100 µM (inactive) | > 100 µM (inactive) | > 100 µM (inactive) | > 100 µM (inactive) | > 100 µM (inactive) | > 100 µM (inactive)
5 | O=C(NCCCN(CCCCN(CCCNC(=O)C(F)(F)F)Cc1ccccc1)Cc1ccccc1)C(F)(F)F | 14 µM (inactive) | 15.7 µM (inactive) | 4.63 µM (inactive) | 23.3 µM (inactive) | 19.9 µM (inactive) | 12.9 µM (inactive) |  | 16.5 µM (inactive) | 10.5 µM (inactive) | 19.7 µM (inactive) | 12.6 µM (inactive) | > 10 µM (inactive) | 10.7 µM (inactive) | 13.4 µM (inactive) | 11.5 µM (inactive) | 3.49 µM (inactive) | 16.5 µM (inactive) | 16.9 µM (inactive) | 20.1 µM (inactive) | 14.8 µM (inactive)
6 | CCOC(=O)c1c(SC(=O)c2ccc(OC)cc2)n(-c2ccccc2)c(=S)n(-c2ccccc2)c1=O | 21.8 µM (inactive) | > 100 µM (inactive) |  | > 100 µM (inactive) | > 100 µM (inactive) | 40.3 µM (inactive) |  | > 100 µM (inactive) | > 100 µM (inactive) | > 100 µM (inactive) | 37.8 µM (inactive) | 33.6 µM (inactive) | 89.1 µM (inactive) | 21.1 µM (inactive) | 23.3 µM (inactive) | 29.7 µM (inactive) | > 100 µM (inactive) | > 100 µM (inactive) | > 100 µM (inactive) | 49.3 µM (inactive)
7 | COC(=O)C1(CCC(C)=O)CCCCCC1=O (stereo not given) |  | > 100 µM (inactive) | > 100 µM (inactive) | > 100 µM (inactive) | > 100 µM (inactive) |  | > 100 µM (inactive) | > 100 µM (inactive) | > 100 µM (inactive) | > 100 µM (inactive) | > 100 µM (inactive) | > 100 µM (inactive) | > 100 µM (inactive) | > 100 µM (inactive) | > 100 µM (inactive) | > 100 µM (inactive) | > 100 µM (inactive) | > 100 µM (inactive) | > 100 µM (inactive) | > 100 µM (inactive)
8 | CCc1ccccc1NC(=O)C(=O)CC(=O)c1sc(Nc2ccccc2Cl)nc1C | 35.1 µM (inactive) | 28.8 µM (inactive) | 32.7 µM (inactive) | 59.6 µM (inactive) | > 100 µM (inactive) | 47 µM (inactive) | 24.4 µM (inactive) | 30.5 µM (inactive) |  | 55.1 µM (inactive) | 27.7 µM (inactive) | 32.5 µM (inactive) | 22.2 µM (inactive) | 40 µM (inactive) | 17.9 µM (inactive) | 27.7 µM (inactive) | 28.2 µM (inactive) | > 100 µM (inactive) | 24.2 µM (inactive) | 24.9 µM (inactive)
